test system: progranulin (PGRN) secretion, BV-2 cells; experiment: PGRN assay: progranulin induction cellular assay (ELISA of secreted mouse PGRN); format: cell-based; conditions: not given
Method in brief: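 Progranulin induction measured in BV-2 cells plated at about 80% confluence the day before, given 1 h to attach, then incubated 16 h. Secreted mouse PGRN quantified by ELISA.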

| Structure (SMILES) | EC50 |
| --- | --- |
| Fc1ccc(C2c3ccccc3CCN2C(C[C@@H]2CN3CCC2CC3)C(F)(F)F)cc1 (stereo partly shown) [Compound 2133] | 9.76 µM |

same assay, conditions: Mus musculus, BV-2, PGRN assay, Table C; secreted mouse PGRN in cell culture medium, ELISA

| Structure (SMILES) | EC50 |
| --- | --- |
| CN1CCC(COC(=O)N2CCc3ccccc3[C@@H]2c2cccc(F)c2F)CC1 [Compound 2134] | > 10 µM |
| CN1CCC(COC(=O)N2CCc3ccccc3[C@H]2c2cccc(F)c2F)CC1 [Compound 2135] | 2.66 µM |
| COc1ccc(COc2ccc([C@H]3c4ccccc4CCN3C(=O)OCC34CCN(CC3)CC4)cc2)cc1 [Compound 2136] | > 3.16 µM |
| COc1ccc(COc2ccc([C@@H]3c4ccccc4CCN3C(=O)OCC34CCN(CC3)CC4)cc2)cc1 [Compound 2137] | > 3.16 µM |
| CN1CCC(COC(=O)N2CCc3ccccc3[C@@H]2c2cc(F)c(F)c(F)c2)CC1 [Compound 2142] | 8.49 µM |
| CN1CCC(COC(=O)N2CCc3ccccc3[C@H]2c2cc(F)c(F)c(F)c2)CC1 [Compound 2143] | 7.75 µM |
| COc1ncc(COc2ccc([C@H]3c4ccccc4CCN3C(=O)OCC34CCN(CC3)CC4)cc2)cn1 [Compound 2145] | 2.93 µM |
| COc1ncc(COc2ccc([C@@H]3c4ccccc4CCN3C(=O)OCC34CCN(CC3)CC4)cc2)cn1 [Compound 2146] | 1.61 µM |
| O=C(OCC12CCN(CC1)CC2)N1CCc2ccccc2[C@@H]1c1cc(F)c(F)c(F)c1 [Compound 2147] | 4.74 µM |
| O=C(OCC12CCN(CC1)CC2)N1CCc2ccccc2[C@H]1c1cc(F)c(F)c(F)c1 [Compound 2148] | 8.83 µM |
| O=C(OCC12CCN(CC1)CC2)N1CCc2ccccc2[C@@H]1c1ccc(OCc2cncnc2)cc1 [Compound 2149] | > 10 µM |
| O=C(OCC12CCN(CC1)CC2)N1CCc2ccccc2[C@H]1c1ccc(OCc2cncnc2)cc1 [Compound 2150] | 9.46 µM |
| O=C(OCC12CCN(CC1)CC2)N1CCc2ccccc2[C@@H]1c1ccc(OCc2ncccn2)cc1 [Compound 2155] | > 10 µM |
| O=C(OCC12CCN(CC1)CC2)N1CCc2ccccc2[C@H]1c1ccc(OCc2ncccn2)cc1 [Compound 2156] | 0.713 µM |
| COC(C(=O)N1CCc2ccccc2[C@@H]1c1ccc(F)cc1)C1CN2CCC1CC2 (stereo partly drawn) [Compound 2175, 1-((S)-1-(4-fluorophenyl)-3,4-dihydroisoquinolin-2(1H)-yl)-2-methoxy-2-(quinuclidin-3-yl) ethenone] | 4.13 µM |

Second part, the compound after the results:

| EC50 | Structure (SMILES) |
| --- | --- |
| 1.21 µM | CN1CCC(COC(=O)N2CCc3ccccc3[C@@H]2c2ccc(F)c(F)c2)CC1 [Compound 2138, (1-methylpiperidin-4-yl)methyl-1-(3,4-difluorophenyl)-3,4-dihydroisoquinoline-2(1H)-carboxylate] |
| 1.34 µM | CN1CC2COC[C@H](C1)C2OC(=O)N1CCc2ccccc2[C@@H]1c1ccc(F)cc1 (stereo partly drawn) [Compound 2144, (S)-((1R,5S,9r)-7-methyl-3-oxa-7-azabicyclo[3.3.1]nonan-9-yl) 1-(4-fluorophenyl)-3,4-dihydroisoquinoline-2(1H)-carboxylate] |
| 1.16 µM | O=C(Nc1ccncc1)N1CCc2ccccc2[C@@H]1c1ccc(F)cc1 [Compound 2151] |
| 6.4 µM | O=C(NCc1ccncc1)N1CCc2ccccc2[C@@H]1c1ccc(F)cc1 [Compound 2152] |
| > 10 µM | CN1CCC(CCOC(=O)N2CCc3ccccc3[C@@H]2c2ccc(F)cc2)CC1 [Compound 2163] |
| > 10 µM | O=C(NCC1CCNCC1)N1CCc2ccccc2[C@@H]1c1ccc(F)cc1 [Compound 2165] |
| 1.59 µM | O=C(OCC1CCNCC1)N1CCc2ccccc2[C@@H]1c1ccc(F)cc1 [Compound 2170] |
| 0.13 µM | O=C(N[C@H]1CCCNC1)N1CCc2ccccc2[C@@H]1c1ccc(F)cc1 [Compound 2171] |
| 0.43 µM | O=C(N[C@@H]1CCCNC1)N1CCc2ccccc2[C@@H]1c1ccc(F)cc1 [Compound 2172] |
| 3.22 µM | CN1CCC(COC(=O)N2CCc3ccccc3[C@@H]2c2ccc(F)cc2)CC1 [Compound 2173] |

same assay, conditions: PGRN assay, Table C; secreted mouse PGRN in cell culture medium, ELISA

| EC50 | Structure (SMILES) |
| --- | --- |
| > 10 µM | O=C(OC1CCNCC1)N1CCc2ccccc2[C@@H]1c1ccc(F)cc1 [Compound 2161] |
| > 10 µM | O=C(OC1CNC1)N1CCc2ccccc2[C@@H]1c1ccc(F)cc1 [Compound 2162] |
